From patent publication US20110086759A1, “CHEMICAL COMPOUNDS” (SYNGENTA CROP PROTECTION, INC., priority 2007, published 2011)

Legend:
Format in all cases: in vivo
[1] = test system: Alopecurus myosuroides (ALOMY); assay: Pre-emergence biological efficacy, glasshouse pot test; settings: 312 h, pre-emergence, 1,000 g/ha, evaluated after 13 days (100=total damage; 0=no damage), read-out: Percentage damage ALOMY
Summary of the method: (§1)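 Test compound, formulated in acetone/water (50:50) containing 0.5% Tween 20 and diluted into an aqueous spray, was applied at 1000 or 250 g/ha to pots sown one day earlier. Injury was rated after 13 days, 100 meaning total damage.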

Setaria faberi (SETFA) [2] = assay: as above; settings: 312 h, pre-emergence, 1,000 g/ha, evaluated after 13 days (100=total damage; 0=no damage), read-out: Percentage damage SETFA
Summary of the method: as §1

[3] = test system: Echinochloa crus-galli (ECHCG); assay: as above; settings: 312 h, pre-emergence, 1,000 g/ha, evaluated after 13 days (100=total damage; 0=no damage), read-out: Percentage damage ECHCG
Summary of the method: as §1

[4] = test system: Amaranthus retoflexus (AMARE); assay: as above; settings: Amaranthus retroflexus, 312 h; pre-emergence, 1,000 g/ha, evaluated after 13 days (100=total damage; 0=no damage); read-out: Percentage damage AMARE
Summary of the method: as §1

Solanum nigrum (SOLNI) [5] = assay: as above; settings: 312 h, pre-emergence, 1,000 g/ha, evaluated after 13 days (100=total damage; 0=no damage), read-out: Percentage damage SOLNI
Summary of the method: as §1

[6] = test system: Ipomea hederaceae (IPOHE); assay: as above; settings: Ipomoea hederacea, 312 h; pre-emergence, 1,000 g/ha, evaluated after 13 days (100=total damage; 0=no damage); read-out: Percentage damage IPOHE
Summary of the method: as §1

[7] = test system: Alopecurus myosuroides (ALOMY); assay: Post-emergence biological efficacy, glasshouse pot test; settings: 312 h, post-emergence, 1,000 g/ha, evaluated after 13 days (100=total damage; 0=no damage), read-out: Percentage damage caused to weed species, ALOMY
Summary of the method: (§2)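 Plants were sown in standard soil and grown 8 days in a glasshouse (24/16° C. day/night, 14 hours light, 65% humidity), then sprayed post-emergence at 1000 or 250 g/ha from acetone/water (50:50) with 0.5% Tween 20. Damage was scored visually after 13 days (0 = none, 100 = total).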

Setaria faberi (SETFA) [8] = assay: as above; settings: 312 h, post-emergence, 1,000 g/ha, evaluated after 13 days (100=total damage; 0=no damage), read-out: Percentage damage caused to weed species, SETFA
Summary of the method: as §2

[9] = test system: Echinochloa crus-galli (ECHCG); assay: as above; settings: 312 h, post-emergence, 1,000 g/ha, evaluated after 13 days (100=total damage; 0=no damage), read-out: Percentage damage caused to weed species, ECHCG
Summary of the method: as §2

[10] = test system: Amaranthus retoflexus (AMARE); assay: as above; settings: Amaranthus retroflexus, 312 h; post-emergence, 1,000 g/ha, evaluated after 13 days (100=total damage; 0=no damage); read-out: Percentage damage caused to weed species, AMARE
Summary of the method: as §2

Solanum nigrum (SOLNI) [11] = assay: as above; settings: 312 h, post-emergence, 1,000 g/ha, evaluated after 13 days (100=total damage; 0=no damage), read-out: Percentage damage caused to weed species, SOLNI
Summary of the method: as §2

[12] = test system: Ipomea hederaceae (IPOHE); assay: as above; settings: Ipomoea hederacea, 312 h; post-emergence, 1,000 g/ha, evaluated after 13 days (100=total damage; 0=no damage); read-out: Percentage damage caused to weed species, IPOHE
Summary of the method: as §2

Row | SMILES | pest or weed control at 1000 g/ha [1] [%] | pest or weed control at 1000 g/ha (Setaria faberi (SETFA) [2]) [%] | pest or weed control at 1000 g/ha [3] [%] | pest or weed control at 1000 g/ha [4] [%] | pest or weed control at 1000 g/ha (Solanum nigrum (SOLNI) [5]) [%] | pest or weed control at 1000 g/ha [6] [%] | pest or weed control at 1000 g/ha [7] [%] | pest or weed control at 1000 g/ha (Setaria faberi (SETFA) [8]) [%] | pest or weed control at 1000 g/ha [9] [%] | pest or weed control at 1000 g/ha [10] [%] | pest or weed control at 1000 g/ha (Solanum nigrum (SOLNI) [11]) [%] | pest or weed control at 1000 g/ha [12] [%]
1 | COC(=O)c1nc(C2CC2)nc(NC2CC2)c1Cl [Compound 4-1, 5-Chloro-2-cyclopropyl-4-cyclopropylamino-6-methoxycarbonyl-pyrimidine] | 40 | 60 | 50 | 100 | 100 | 90 | 60 | 80 | 60 | 100 | 100 | 90
2 | COC(=O)c1nc(C2CC2)nc(NC2(c3ccc(Cl)cc3)CC2)c1Cl [Compound 4-5, 5-Chloro-4-[1-(4-chlorophenyl)cyclo-propylamino]-2-cyclopropyl-6-methoxycarbonyl-pyrimidine] | 0 | 0 | 0 | 40 | 0 | 40 | 20 | 40 | 0 | 100 | 80 | 70
3 | COC(=O)c1nc(C2CC2)nc(NC2(c3ccc(Cl)cc3Cl)CC2)c1Cl [Compound 4-6] | 0 | 0 | 0 | 40 | 20 | 10 | 20 | 0 | 20 | 100 | 40 | 60
4 | COC(=O)c1nc(C2CC2)nc(NC2(c3ccccn3)CC2)c1Cl [Compound 4-10, 5-Chloro-2-cyclopropyl-6-methoxycarbonyl-4-(1-pyrid-2-ylcyclo-propylamino)-pyrimidine] | 0 | 0 | 0 | 30 | 20 | 80 | 20 | 0 | 0 | 60 | 40 | 50
5 | COC(=O)c1nc(C2CC2)nc(NC2(c3cccc(C)n3)CC2)c1Cl [Compound 4-13, 5-Chloro-2-cyclopropyl-6-methoxycarbonyl-4-[1-(6-methylpyrid-2-yl)-cyclopropyl-amino]-pyrimidine] | 0 | 0 | 0 | 20 | 20 | 50 | 20 | 0 | 0 | 60 | 50 | 60
6 | COC(=O)c1nc(C2CC2)nc(NC2(COc3ccc(Cl)cc3)CC2)c1Cl [Compound 4-16, 5-Chloro-4-[1-(4-chlorophenoxy-methyl)cyclo-propylamino]-2-cyclopropyl-6-methoxycarbonyl-pyrimidine] | 0 | 0 | 0 | 30 | 10 | 10 | 20 | 60 | 40 | 100 | 90 | 100
7 | COC(=O)c1nc(C2CC2)nc(NC2(CCc3ccccc3)CC2)c1Cl [Compound 4-17, 5-Chloro-2-cyclopropyl-6-methoxycarbonyl-4-[1-(2-phenylethyl)-cyclopropylamino]-pyrimidine] | 10 | 0 | 20 | 50 | 10 | 70 | 20 | 60 | 30 | 100 | 70 | 60
8 | COC(=O)c1nc(C2CC2)nc(NC2(/C=C/c3ccc(F)cc3)CC2)c1Cl [Compound 4-20, 5-Chloro-2-cyclopropyl-4-{1-[2-(4-fluorophenyl)-ethenyl]-cyclo-propylamino}-6-methoxycarbonyl-pyrimidine] | 0 | 0 | 0 | 50 | 20 | 50 | 20 | 70 | 50 | 100 | 80 | 100
9 | COC(=O)c1nc(C2CC2)nc(NC2(/C=C/c3ccc(Cl)cc3)CC2)c1Cl [Compound 4-21, 5-Chloro-4-{1-[2-(4-chlorophenyl)-ethenyl]-cyclopropylamino}-2-cyclopropyl-6-methoxycarbonyl-pyrimidine] | 0 | 0 | 0 | 20 | 50 | 70 | 20 | 60 | 50 | 100 | 80 | 80
10 | COC(=O)c1nc(C2CC2)nc(NC2(/C=C/c3cc(C(F)(F)F)cc(C(F)(F)F)c3)CC2)c1Cl [Compound 4-22, 4-{1-[2-(3,5-Bis-trifluoromethylphen-yl)-ethenyl]-cyclopropylamino}-5-chloro-2-cyclopropyl-6-methoxycarbonyl-pyrimidine] | 20 | 10 | 20 | 70 | 20 | 80 | 30 | 80 | 40 | 100 | 100 | 100
11 | COC(=O)c1nc(C2CC2)nc(NC2(/C=C/c3cccs3)CC2)c1Cl [Compound 4-23, 5-Chloro-2-cyclopropyl-6-methoxycarbonyl-4-[1-(2-thiophen-2-ylethenyl)-cyclopropylamino]-pyrimidine] | 10 | 0 | 0 | 70 | 60 | 70 | 20 | 70 | 60 | 100 | 80 | 100
